Each structure is given as a SMILES string.

These results are taken from patent US9399637B2, “Substituted heteroaryl compounds and methods of use” (Calitor Sciences, LLC, priority 2014, dated 2016).

The nature of data set [1]: Pharmacokinetics after intravenous and oral administration in rats. The data set is classed as in vivo. To be noted: iv dosing, 1 mg/kg; for AUC(0-t) / half-life / Vd: rat, plasma; for Vd: read-out: Vss. How it is done:
The LC/MS/MS system used in the analysis consists of an Agilent 1200 Series vacuum degasser, binary pump, well-plate autosampler, thermostatted column compartment, the Agilent G6430 Triple Quadrupole Mass Spectrometer with an electrosprayionization (ESI) source. Quantitative analysis was carried out using MRM mode. The parameters for MRM transitions are in the Table A.
An Agilent XDB-C18, 2.1×30 mm, 3.5 μM column was used for the analysis. 5 μL of the samples were injected. Analysis condition: The mobile phase was 0.1% formic acid in water (A) and 0.1% formic acid in methanol (B). The flow rate was 0.4 mL/min. And the gradient of Mobile phase was in the Table B.
Alternatively, an Agilent 6330 series LC/MS/MS spectrometer equipped with G1312A binary pumps, a G1367A autosampler and a G1314C UV detector were used in the analysis. An ESI source was used on the LC/MS/MS spectrometer. The analysis was done in positive ion mode as appropriate and the MRM transition for each analyte was optimized using standard solution. A Capcell MP-C18 100×4.6 mm I.D., […] column (Phenomenex, Torrance, Calif., USA) was used during the analysis. The mobile phase was 5 mM ammonia acetate, 0.1% MeOH in water (A): 5 mM ammonia acetate, 0.1% MeOH in acetonitrile (B) (70:30, v/v). The flow rate was 0.6 mL/min. Column was maintained at ambient temperature. 20 μL of the samples were injected.
The compounds disclosed herein are assessed in pharmacokinetic studies in mice, rats, dogs or monkeys. The compounds are administered as a water solution, 2% HPMC+1% TWEEN®80 in water solution, 5% DMSO+5% solutol in saline, 4% MC suspension or capsule. For the intravenous administration, the animals are generally given at 1 or 2 mg/kg dose. For the oral (p.o.) dosing, mice and rats are generally given 5 or 10 mg/kg dose, and dogs and monkeys are generally given 10 mg/kg dose. The blood samples (0.3 mL) are drawn at 0.25, 0.5, 1.0, 2.0, 3.0, 4.0, 6.0, 8.0, 12 and 24 h time points or 0.083, 0.25, 0.5, 1.0, 2.0, 4.0, 6.0, 8.0 and 24 h time points and centrifuged at 3,000 or 4000 rpm for 2 to 10 min. The plasma solutions are collected, and stored at −20° C. or −70° C. until analyzed by LC/MS/MS as described above.

The target of the next data set is T1, JAK1 (h) (Homo sapiens, UniProt P23458).
T1 construct: purchased Millipore UK Ltd (assays run there as a service)
The data set can be described thus: JAK1 kinase assay. The data set is classed as biochemical. How it is done: (§1) Kinase assays can be performed by measurement of incorporation of γ-^33P ATP into immobilized myelin basic protein (MBP). High binding white 384 well plates (Greiner) are coated with MBP (Sigma #M-1891) by incubation of 60 μL/well of 20 μg/mL MBP in Tris-buffered saline (TBS; 50 mM Tris pH 8.0, 138 mM NaCl, 2.7 mM KCl) for 24 h at 4° C. Plates are washed 3× with 100 μL TBS. Kinase reactions are carried out in a total volume of 34 μL in kinase buffer (5 mM Hepes pH 7.6, 15 mM NaCl, 0.01% bovine gamma globulin (Sigma #I-5506), 10 mM MgCl2, 1 mM DTT, 0.02% TritonX-100). Compound dilutions are performed in DMSO and added to assay wells to a final DMSO concentration of 1%. Each data point is measured in duplicate, and at least two duplicate assays are performed for each individual compound determination. Enzyme is added to final concentrations of 10 nM or 20 nM, for example. A mixture of unlabeled ATP and γ-^33P ATP is added to start the reaction (2×10^6 cpm of γ-^33P ATP per well (3000 Ci/mmole) and 10 μM unlabeled ATP, typically. The reactions are carried out for 1 h at room temperature with shaking Plates are washed 7× with TBS, followed by the addition of 50 μL/well scintillation fluid (Wallac). Plates are read using a Wallac Trilux counter. This is only one format of such assays; various other formats are possible, as known to one skilled in the art.
The above assay procedure can be used to determine the IC50 for inhibition and/or the inhibition constant, Ki. The IC50 is defined as the concentration of compound required to reduce the enzyme activity by 50% under the condition of the assay. The IC50 value is estimated by preparing a 10 point curve using a ½ log dilution series (for example, a typical curve may be prepared using the following compound concentrations: 3 μM, 1 μM, 0.3 μM, 0.1 μM, 0.03 μM, 0.01 μM, 0.003 μM, 0.001 μM, 0.0003 μM and 0 μM).
JAK1 (h) is incubated with 20 mM Tris/HCl pH 7.5, 0.2 mM EDTA, 500 μM […], 10 mM MgAcetate and [γ-^33P-ATP] (specific activity approx. 500 cpm/pmol, concentration as required).
The kinase assays described herein were performed at Millipore UK Ltd, Dundee Technology Park, Dundee DD2 1SW, UK.

In another data set the target is T2, Aurora-A (h) (Homo sapiens, UniProt O14965).
T2 construct: purchased Millipore UK Ltd (assays run there as a service)
T2 sequence (O14965 1-403): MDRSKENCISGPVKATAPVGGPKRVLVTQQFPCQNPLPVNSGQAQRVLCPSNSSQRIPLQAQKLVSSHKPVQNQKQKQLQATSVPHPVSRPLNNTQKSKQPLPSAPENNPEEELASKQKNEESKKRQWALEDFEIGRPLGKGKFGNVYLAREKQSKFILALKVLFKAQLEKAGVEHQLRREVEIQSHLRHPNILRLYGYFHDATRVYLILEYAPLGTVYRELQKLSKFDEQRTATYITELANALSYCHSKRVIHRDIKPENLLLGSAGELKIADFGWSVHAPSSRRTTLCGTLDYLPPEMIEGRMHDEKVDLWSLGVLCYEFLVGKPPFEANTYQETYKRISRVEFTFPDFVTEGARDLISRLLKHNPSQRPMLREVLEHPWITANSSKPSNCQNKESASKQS
In words: Aurora-A kinase assay. The data set is classed as biochemical. As to the method:
as §1, with “art. […]” for “art.”

Another data set addresses T3, TYK2 (h) (Homo sapiens, UniProt P29597).
T3 construct: purchased Millipore UK Ltd (assays run there as a service)
In words: TYK2 kinase assay. The format is biochemical. How it is done:
as §1, with “art. […]” for “art.”

T1 sequence (P23458 whole entry): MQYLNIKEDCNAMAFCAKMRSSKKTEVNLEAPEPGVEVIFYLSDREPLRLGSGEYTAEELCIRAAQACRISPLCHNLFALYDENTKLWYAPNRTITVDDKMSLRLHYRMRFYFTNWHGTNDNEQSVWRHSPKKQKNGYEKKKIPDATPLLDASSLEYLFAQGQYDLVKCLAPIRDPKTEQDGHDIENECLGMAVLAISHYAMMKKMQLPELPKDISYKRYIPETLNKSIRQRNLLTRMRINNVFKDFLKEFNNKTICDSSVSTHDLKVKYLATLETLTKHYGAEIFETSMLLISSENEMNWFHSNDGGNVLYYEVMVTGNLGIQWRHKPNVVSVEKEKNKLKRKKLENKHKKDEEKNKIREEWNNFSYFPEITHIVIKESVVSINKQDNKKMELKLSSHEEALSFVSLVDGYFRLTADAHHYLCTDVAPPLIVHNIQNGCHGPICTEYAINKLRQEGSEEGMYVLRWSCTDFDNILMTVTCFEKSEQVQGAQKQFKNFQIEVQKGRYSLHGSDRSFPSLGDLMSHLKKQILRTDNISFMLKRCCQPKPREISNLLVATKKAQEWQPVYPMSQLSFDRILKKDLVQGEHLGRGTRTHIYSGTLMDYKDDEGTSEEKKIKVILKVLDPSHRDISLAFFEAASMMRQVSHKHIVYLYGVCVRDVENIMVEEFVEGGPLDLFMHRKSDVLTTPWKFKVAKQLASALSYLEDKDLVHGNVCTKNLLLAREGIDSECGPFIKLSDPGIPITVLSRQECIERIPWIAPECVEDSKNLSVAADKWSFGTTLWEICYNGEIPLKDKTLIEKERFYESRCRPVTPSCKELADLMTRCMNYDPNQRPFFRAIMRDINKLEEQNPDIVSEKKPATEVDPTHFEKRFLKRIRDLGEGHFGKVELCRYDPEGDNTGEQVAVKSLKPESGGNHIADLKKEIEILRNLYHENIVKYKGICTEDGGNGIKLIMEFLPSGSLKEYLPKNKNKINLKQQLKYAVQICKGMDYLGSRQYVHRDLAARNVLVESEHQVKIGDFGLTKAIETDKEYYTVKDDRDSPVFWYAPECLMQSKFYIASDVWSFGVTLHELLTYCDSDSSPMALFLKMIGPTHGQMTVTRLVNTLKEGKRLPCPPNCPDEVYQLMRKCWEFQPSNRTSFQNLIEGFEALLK
T3 sequence (P29597 whole entry): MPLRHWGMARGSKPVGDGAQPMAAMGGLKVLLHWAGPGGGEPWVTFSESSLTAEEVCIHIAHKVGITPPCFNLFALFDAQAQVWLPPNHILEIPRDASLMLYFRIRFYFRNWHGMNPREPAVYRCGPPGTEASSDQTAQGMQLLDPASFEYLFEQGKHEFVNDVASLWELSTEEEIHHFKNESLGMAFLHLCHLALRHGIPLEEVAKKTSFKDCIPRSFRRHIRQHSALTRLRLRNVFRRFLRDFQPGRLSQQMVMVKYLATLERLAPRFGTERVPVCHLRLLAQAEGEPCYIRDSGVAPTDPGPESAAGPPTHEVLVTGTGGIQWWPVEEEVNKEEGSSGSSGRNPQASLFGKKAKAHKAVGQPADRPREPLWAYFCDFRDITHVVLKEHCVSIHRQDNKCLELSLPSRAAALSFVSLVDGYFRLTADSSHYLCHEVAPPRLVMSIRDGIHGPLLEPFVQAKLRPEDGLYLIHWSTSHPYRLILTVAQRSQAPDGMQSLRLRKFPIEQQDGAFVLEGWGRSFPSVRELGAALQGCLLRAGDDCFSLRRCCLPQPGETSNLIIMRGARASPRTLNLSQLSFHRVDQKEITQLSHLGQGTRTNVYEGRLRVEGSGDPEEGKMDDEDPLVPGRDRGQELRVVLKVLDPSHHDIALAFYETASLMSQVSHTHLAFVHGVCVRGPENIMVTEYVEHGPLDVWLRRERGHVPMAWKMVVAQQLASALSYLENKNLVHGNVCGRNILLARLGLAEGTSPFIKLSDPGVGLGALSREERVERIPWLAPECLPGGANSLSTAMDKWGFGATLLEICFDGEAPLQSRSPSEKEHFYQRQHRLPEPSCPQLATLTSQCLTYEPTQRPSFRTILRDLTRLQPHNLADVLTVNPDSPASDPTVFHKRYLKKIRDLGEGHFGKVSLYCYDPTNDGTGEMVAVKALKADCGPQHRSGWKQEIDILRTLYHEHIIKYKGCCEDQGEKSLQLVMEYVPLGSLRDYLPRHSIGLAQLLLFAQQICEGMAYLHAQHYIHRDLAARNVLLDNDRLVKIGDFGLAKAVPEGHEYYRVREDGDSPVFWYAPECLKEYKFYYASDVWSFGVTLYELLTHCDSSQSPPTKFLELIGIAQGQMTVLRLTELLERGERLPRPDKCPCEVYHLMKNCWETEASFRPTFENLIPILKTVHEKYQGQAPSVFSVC

Usually AUC(0-t) stands for exposure summed from dosing to a finite time, without extrapolation to infinity. Low values mean less exposure, high ones more exposure. By half-life is commonly meant how long it takes for the measured level to halve. One may read the IC50 as the concentration needed to halve the response being measured. A low value points to greater potency in that assay. `Cc1c2ccc(Nc3ncc(Cl)c(NC4CC5CN(C(=O)CC#N)CC5C4)n3)cc2nn1C` (stereo not drawn) [Ex. 4, 3-(5-((5-chloro-2-((2,3-dimethyl-2H-indazol-6-yl)amino)pyrimidin-4-yl)amino)hexahydrocyclopenta[c]pyrrol-2(1H)-yl)-3-oxopropanenitrile]: in data set [1], the Cl/F came to 36.2 mL/min/kg, the AUC(0-t) was 458 ng·h/mL, the half-life is 1.36 h and the Vd was 1.44 L/kg. Besides, the IC50 against JAK1 (h) came to 1 nM. On Aurora-A (h), this compound showed an IC50 of 104 nM. This compound came in with an IC50 at TYK2 (h) of 20 nM.
For the compound `CC(=O)N1CCC2(CCC(Nc3nc(Nc4ccc5c(C)n(C)nc5c4)ncc3Cl)CC2)CC1` [Ex. 7, 1-(9-((5-chloro-2-((2,3-dimethyl-2H-indazol-6-yl)amino)pyrimidin-4-yl)amino)-3-azaspiro[5.5]undecan-3-yl)ethanone], in data set [1], the Cl/F was 24.5 mL/min/kg, the AUC(0-t) is 688 ng·h/mL, the half-life was 0.85 h and the Vd stood at 1.68 L/kg. At JAK1 (h), this compound registered an IC50 of 0.9 nM.
